From PubChem BioAssay AID248 (DTP/NCI, 2004)
Several values for one entry are separate records, joined by “and”; a condition that tells them apart may be missing. Equal values may be shown once. Toxic doses and inconclusive results are not listed.

System: L1210 leukemia ip in BDF1 mice, survival T/C
Assay: NCI In Vivo Anticancer Drug Screen. Data for tumor model L1210 Leukemia (intraperitoneal) in B6D2F1 (BDF1) mice
Conditions: endpoint: mean survival time, higher = longer survival
Procedure, shortened: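 Antitumor effect is assessed in tumor-bearing animals. Survival in the compound arm is compared with a vehicle-dosed control arm and expressed as their quotient.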

[1] = dose: 100.0 mg/kg/injection, schedule: Q01DX001 (ip), vehicle: carboxymethylcellulose (CMC)
[2] = dose: 200.0 mg/kg/injection, schedule: Q01DX001 (ip), vehicle: carboxymethylcellulose (CMC)
[3] = dose: 400.0 mg/kg/injection, schedule: Q01DX001 (ip), vehicle: carboxymethylcellulose (CMC)
[4] = dose: 50.0 mg/kg/injection, schedule: Q01DX001 (ip), vehicle: saline
[5] = dose: 100.0 mg/kg/injection, schedule: Q01DX001 (ip), vehicle: saline
[6] = dose: 3.13 mg/kg/injection, schedule: Q01DX009 (ip), vehicle: saline
[7] = dose: 100.0 mg/kg/injection, schedule: Q04DX003 (ip), vehicle: saline with Tween-80
[8] = dose: 200.0 mg/kg/injection, schedule: Q04DX003 (ip), vehicle: saline with Tween-80
[9] = dose: 400.0 mg/kg/injection, schedule: Q04DX003 (ip), vehicle: saline with Tween-80

SMILES: COc1ccc(-n2c(=S)[nH]c3ccccc3c2=O)cc1
- T/C (dose: 100.0 mg/kg/injection, schedule: Q01DX009 (ip), vehicle: other): 107 % of control
- T/C (dose: 100.0 mg/kg/injection, schedule: Q04DX003 (ip), vehicle: saline): 95 % of control
- T/C (dose: 200.0 mg/kg/injection, schedule: Q01DX009 (ip), vehicle: other): 96 % of control
- T/C (dose: 200.0 mg/kg/injection, schedule: Q04DX003 (ip), vehicle: saline): 91 % of control
- T/C (dose: 400.0 mg/kg/injection, schedule: Q01DX009 (ip), vehicle: other): 102 % of control
- T/C (dose: 400.0 mg/kg/injection, schedule: Q04DX003 (ip), vehicle: saline): 91 % of control

SMILES: O=C(NCCCCCCCCCCCCNC(=O)Nc1ccc(C2=NCC(O)CN2)cc1)Nc1ccc(C2=NCC(O)CN2)cc1 (stereo not drawn)
- T/C (dose: 62.5 mg/kg/injection, schedule: Q01DX Z (ip), vehicle: carboxymethylcellulose (CMC)): 113 % of control
- T/C (dose: 250.0 mg/kg/injection, schedule: Q01DX Z (ip), vehicle: carboxymethylcellulose (CMC)): 122 % of control

SMILES: CCOC(=O)Nc1cc(NCC(O)CN(C)c2ccccc2)c(N)c(NC(=O)OCC)n1 (stereo not drawn)
- T/C [1]: 87 % of control
- T/C [2]: 87 % of control
- T/C [3]: 92 % of control

SMILES: Oc1c(Cl)cc(Cl)cc1Sc1cc(Cl)cc(Cl)c1O
- T/C (dose: 100.0 mg/kg/injection, schedule: Q04DX002 (ip), vehicle: saline): 114 % of control
- T/C (dose: 200.0 mg/kg/injection, schedule: Q04DX002 (ip), vehicle: saline): 100 % of control
- T/C (dose: 400.0 mg/kg/injection, schedule: Q04DX002 (ip), vehicle: saline): 114 % of control

SMILES: COC(=O)C1CC23C=CCN4CC(C2C)C2(c5ccccc5NC12)C43 (stereo not drawn)
- T/C (dose: 0.03 mg/kg/injection, schedule: Q01DX001 (ip), vehicle: saline): 101 % of control
- T/C (dose: 0.06 mg/kg/injection, schedule: Q01DX001 (ip), vehicle: saline): 98 % of control
- T/C (dose: 0.13 mg/kg/injection, schedule: Q01DX001 (ip), vehicle: saline): 93 % of control
- T/C (dose: 0.25 mg/kg/injection, schedule: Q01DX001 (ip), vehicle: saline): 101 % of control
- T/C (dose: 0.5 mg/kg/injection, schedule: Q01DX001 (ip), vehicle: saline): 97 % of control
- T/C (dose: 1.0 mg/kg/injection, schedule: Q01DX001 (ip), vehicle: saline): 97 % of control
- T/C (dose: 2.0 mg/kg/injection, schedule: Q01DX001 (ip), vehicle: saline): 98 % of control
- T/C (dose: 25.0 mg/kg/injection, schedule: Q01DX001 (ip), vehicle: saline): 101 % of control
- T/C [4]: 95 % of control
- T/C [5]: 101 % of control

SMILES: COc1ccc2nc3ccccc3c(NCCCN(C)C)c2c1
- T/C (dose: 5.0 mg/kg/injection, schedule: Q01DX001 (ip), vehicle: saline): 115 % of control
- T/C (dose: 10.0 mg/kg/injection, schedule: Q01DX001 (ip), vehicle: saline): 115 % of control
- T/C (dose: 20.0 mg/kg/injection, schedule: Q01DX001 (ip), vehicle: saline): 107 % of control
- T/C (dose: 40.0 mg/kg/injection, schedule: Q01DX001 (ip), vehicle: saline): 106 % of control

SMILES: c1ccc(C[N+]23CCC(CC2)CC3)cc1
- T/C [6]: 95 % of control
- T/C (dose: 6.25 mg/kg/injection, schedule: Q01DX009 (ip), vehicle: saline): 99 % of control
- T/C (dose: 12.5 mg/kg/injection, schedule: Q01DX009 (ip), vehicle: saline): 101 % of control

SMILES: COC(=O)C1CC(OS(=O)(=O)c2ccc(C)cc2)CN1C(=O)OCc1ccccc1 (stereo not drawn)
- T/C [7]: 102 % of control
- T/C [8]: 94 % of control
- T/C [9]: 92 % of control

SMILES: CN1CCC(CCOCc2ccccc2)(CN2c3ccccc3Sc3ccccc32)C1 (stereo not drawn)
- T/C (dose: 6.25 mg/kg/injection, schedule: Q01DX009 (ip), vehicle: saline with Tween-80): 93 % of control
- T/C (dose: 12.5 mg/kg/injection, schedule: Q01DX009 (ip), vehicle: saline with Tween-80): 98 % of control
- T/C (dose: 25.0 mg/kg/injection, schedule: Q01DX009 (ip), vehicle: saline with Tween-80): 93 % of control

SMILES: CN(C)CCC1(c2ccccc2)CCN(C)C1=O (stereo not drawn)
- T/C (dose: 75.0 mg/kg/injection, schedule: Q01DX001 (ip), vehicle: carboxymethylcellulose (CMC)): 95 % of control
- T/C (dose: 150.0 mg/kg/injection, schedule: Q01DX001 (ip), vehicle: carboxymethylcellulose (CMC)): 95 % of control

SMILES: CN(c1ccccc1)S(=O)(=O)c1ccccc1
- T/C (dose: 100.0 mg/kg/injection, schedule: Q01DX009 (ip), vehicle: saline with Tween-80): 100 % of control
- T/C [7]: 97 % of control
- T/C (dose: 200.0 mg/kg/injection, schedule: Q01DX009 (ip), vehicle: saline with Tween-80): 106 % of control
- T/C [8]: 97 % of control
- T/C (dose: 400.0 mg/kg/injection, schedule: Q01DX009 (ip), vehicle: saline with Tween-80): 90 % of control
- T/C [9]: 92 % of control

SMILES: O=NN(CCF)C(=O)NC1CCSCC1
- T/C (dose: 24.0 mg/kg/injection, schedule: Q01DX001 (ip), vehicle: other): 334 % of control
- T/C (dose: 36.0 mg/kg/injection, schedule: Q01DX001 (ip), vehicle: other): 344 % of control
- T/C (dose: 54.0 mg/kg/injection, schedule: Q01DX001 (ip), vehicle: other): 344 % of control

SMILES: CCOC(=O)C1(CCOC(C)=O)CCCCC1=O (stereo not drawn)
- T/C [1]: 93 % of control
- T/C [2]: 93 % of control
- T/C [3]: 102 % of control

SMILES: O=NN(CCCl)C(=O)Nc1ccc(Cn2ccc(=O)[nH]c2=O)cc1
- T/C (dose: 18.0 mg/kg/injection, schedule: Q01DX001 (ip), vehicle: carboxymethylcellulose (CMC)): 164 % of control
- T/C (dose: 23.0 mg/kg/injection, schedule: Q01DX001 (ip), vehicle: carboxymethylcellulose (CMC)): 185 % of control
- T/C (dose: 26.0 mg/kg/injection, schedule: Q01DX001 (ip), vehicle: carboxymethylcellulose (CMC)): 152 % of control
- T/C (dose: 31.0 mg/kg/injection, schedule: Q01DX001 (ip), vehicle: carboxymethylcellulose (CMC)): 189 % of control
- T/C (dose: 40.0 mg/kg/injection, schedule: Q01DX001 (ip), vehicle: carboxymethylcellulose (CMC)): 178 % of control
- T/C (dose: 46.0 mg/kg/injection, schedule: Q01DX001 (ip), vehicle: carboxymethylcellulose (CMC)): 179 % of control
- T/C (dose: 60.0 mg/kg/injection, schedule: Q01DX001 (ip), vehicle: carboxymethylcellulose (CMC)): 200 % of control
- T/C (dose: 62.0 mg/kg/injection, schedule: Q01DX001 (ip), vehicle: carboxymethylcellulose (CMC)): 167 % of control
- T/C (dose: 90.0 mg/kg/injection, schedule: Q01DX001 (ip), vehicle: carboxymethylcellulose (CMC)): 207 % of control
- T/C (dose: 125.0 mg/kg/injection, schedule: Q01DX001 (ip), vehicle: carboxymethylcellulose (CMC)): 107 % of control
- T/C (dose: 187.0 mg/kg/injection, schedule: Q01DX001 (ip), vehicle: carboxymethylcellulose (CMC)): 93 % of control

SMILES: CN(C)C(N)=S
- T/C (dose: 100.0 mg/kg/injection, schedule: Q01DX009 (ip), vehicle: saline): 91 % of control
- T/C (dose: 200.0 mg/kg/injection, schedule: Q01DX009 (ip), vehicle: saline): 100 % of control
- T/C (dose: 400.0 mg/kg/injection, schedule: Q01DX009 (ip), vehicle: saline): 100 % of control

SMILES: CCCC[As](=O)(O)CCCc1ccccc1
- T/C (dose: 0.78 mg/kg/injection, schedule: Q01DX009 (ip), vehicle: saline): 97 % of control
- T/C (dose: 1.56 mg/kg/injection, schedule: Q01DX009 (ip), vehicle: saline): 100 % of control
- T/C [6]: 103 % of control

SMILES: C[n+]1ncc2ccccc2c1Cc1ccc(Br)cc1
- T/C (dose: 6.25 mg/kg/injection, schedule: Q01DX009 (ip), vehicle: other): 98 % of control and 103 % of control
- T/C (dose: 6.25 mg/kg/injection, schedule: Q04DX002 (ip), vehicle: carboxymethylcellulose (CMC)): 91 % of control
- T/C (dose: 12.5 mg/kg/injection, schedule: Q01DX009 (ip), vehicle: other): 108 % of control and 86 % of control
- T/C (dose: 12.5 mg/kg/injection, schedule: Q04DX002 (ip), vehicle: carboxymethylcellulose (CMC)): 106 % of control
- T/C (dose: 25.0 mg/kg/injection, schedule: Q04DX002 (ip), vehicle: carboxymethylcellulose (CMC)): 91 % of control
- T/C (dose: 25.0 mg/kg/injection, schedule: Q04DX002 (ip), vehicle: other): 100 % of control and 90 % of control

SMILES: CC(=O)OC1COC(n2cnc3c(=O)[nH]c(N)nc32)C(OC(C)=O)C1OC(C)=O (stereo not drawn)
- T/C [4]: 104 % of control
- T/C [5]: 104 % of control
- T/C (dose: 200.0 mg/kg/injection, schedule: Q01DX001 (ip), vehicle: saline): 95 % of control
- T/C (dose: 400.0 mg/kg/injection, schedule: Q01DX001 (ip), vehicle: saline): 93 % of control
